Test results as given in patent US5202348A, “Thiarubrine antifungal agents” (The University of British Columbia, priority 1990, dated 1993).
Converted amounts (≈) assume the structure as drawn. Like-named read-outs stand apart in the source and are kept apart here.

Tests used:
C. albicans [1] = assay: Growth inhibition of C. albicans during 24 hours exposure; assay type: cell-based, Candida albicans; conditions: Candida albicans, 24 h
Method: (§1) Doses inhibiting growth in 50% were estimated by plotting concentration o
(§2) a logarithmic scale and percent of growth inhibition for 24 hours exposur
(§3) on a probability scale.

[2] = Growth inhibition of P815 mastocytoma during 24 hours exposure; assay type: cell-based, Mouse; conditions: mouse, p815 cells
Method: (§4) P815 = Mouse mastocytoma […]
as §2, §3

P815 = assay: as above; assay type: cell-based, Mouse
Method: as §4, §2, §3

[3] = Growth inhibition of L1210 during 24 hours exposure; assay type: cell-based, Mouse; conditions: mouse, l1210 cells; Table 2; read-out: Toxicity Index, LC50 L1210 / C. albicans
Method: (§5) L1210 = Mouse lymphocytic leukemia
as §1, §2, §3

L1210 = assay: as above; assay type: cell-based, Mouse; conditions: Mus musculus, L1210, 24 h, read-out: Concentration causing 50% growth inhibition
Method: as §5, §1, §2, §3

[4] = Growth inhibition of WEHI-3 during 24 hours exposure; assay type: cell-based, Mouse; conditions: mouse, wehi-3 cells; Table 2; read-out: Toxicity Index, LC50 WEHI-3 / LC50 C. albicans
Method: (§6) WEHl3 = Mouse myelomonocyte
as §1, §2, §3

WEHI-3 = assay: as above; assay type: cell-based, Mouse; conditions: Mus musculus, WEHI-3, 24 h, read-out: Concentration causing 50% growth inhibition
Method: as §6, §1, §2, §3

[5] = Growth inhibition of 3T3 during 24 hours exposure; assay type: cell-based, Mouse; conditions: mouse, 3t3 cells; Table 2; read-out: Toxicity Index, LC50 3T3 / LC50 C. albicans
Method: (§7) 3T3 = Mouse fibroblasts
as §1, §2, §3

3T3 = assay: Growth inhibition of 3T3 during 24 hours exposure; assay type: cell-based, Mouse; conditions: Mus musculus, NIH3T3, 24 h, read-out: Concentration causing 50% growth inhibition
Method: as §7, §1, §2, §3

E. coli [6] = assay: Growth inhibition of E. coli during 24 hours exposure; assay type: cell-based, Escherichia coli; conditions: Escherichia coli, 24 h, read-out: Minimal concentration causing 50% growth inhibition
Method: as §1, §2, §3

P. aeruginosa = assay: Growth inhibition of P. aeruginosa during 24 hours exposure; assay type: cell-based, Pseudomonas aeruginosa; conditions: Pseudomonas aeruginosa, 24 h
Method: as §1, §2, §3

Aspergillus fumigatus [7] = assay: Sensitivity of Aspergillus fumigatus, agar diffusion method; assay type: cell-based; conditions: read-out: Zone of Growth Inhibition
Source text: Results were obtained by agar diffusion method. Disc diameter - 6 mm. -* = no zone over disc diameter.

C. albicans [8] = assay: LC50 (24 hrs.), doses required to inhibit growth in 50%, different method; assay type: cell-based, Candida albicans; conditions: Candida albicans, 24 h, read-out: LC50 (24 hrs.), dose required to inhibit growth in 50%
Source text: Doses Required to Inhibit Growth of C. albicans
in 50% During 24 hrs. (ng/ml)

P815 mastocytoma = assay: as above; assay type: cell-based; conditions: Mus musculus, P815, 24 h, read-out: LC50 (24 hrs.), dose required to inhibit growth in 50%
Candida = assay: Anti-Candida activity (summary); assay type: cell-based; conditions: Table 14;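 also: Letter grades where Y means active and y means less active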
Aspergillus = assay: Anti-Aspergillus activity (summary); assay type: cell-based; conditions: Table 14;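 also: Letter grades where Y means active and y means less active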
bacteria = assay: Anti-bacterial activity (summary); assay type: cell-based; conditions: Table 14
C. albicans [9] = assay: Growth inhibition of C. albicans during 24 hours exposure; assay type: cell-based, Candida albicans; conditions: Candida albicans, 24 h, read-out: Minimal concentration causing 100% growth inhibition
E. coli [10] = assay: Growth inhibition of E. coli during 24 hours exposure; assay type: cell-based, Escherichia coli; conditions: Escherichia coli, 24 h, read-out: Minimal concentration causing 100% growth inhibition
murine cytomegalovirus = conditions: only in presence of UV-A radiation; cited from earlier work
Sindbis virus = conditions: only in presence of UV-A radiation; cited from earlier work
bacteriophage T4 = conditions: in UV-A only; cited from earlier work
bacteriophage M13 = conditions: cited from earlier work
mouse cells = conditions: cited from earlier work
Candida albicans = conditions: concentrations comparable to those of amphotericin B; cited from earlier work
Aspergillus fumigatus [11] = conditions: concentrations comparable to those of amphotericin B; cited from earlier work
Escherichia coli = conditions: cited from earlier work
Bacillus subtilis = conditions: cited from earlier work
Hycobacteria sp. = conditions: cited from earlier work
Coenorhabditis elogans = conditions: cited from earlier work
[12] = test system: murine cytomegalovirus and Sindbis virus; conditions: phototoxic activity; cited from earlier work
[13] = read-out: Minimal concentration causing 50% growth inhibition

SMILES: C=CC#CC#CC1=CC=C(C#CC)SS1 [Thiarubrine A, 3 - (1- -propynyl) 6 (5-hexen-3-yn-1-ynyl)1,2-dithiacyclohexa-3,5-diene]
- IC50 (C. albicans [1]; read-out: Concentration causing 50% growth inhibition): 0.028 µg/mL (≈ 0.123 µM)
- IC50 (C. albicans [1]; [13]): 0.028 µg/mL (≈ 0.123 µM)
- selectivity ratio at 24 h ([2]; 100% growth inhibition, Table 3, read-out: Ratio of minimal concentration causing 100% growth inhibition, P815 line vs C. albicans): ~4
- selectivity ratio at 24 h ([2]; Table 2, read-out: Toxicity Index, LC50 P815 / LC50 C. albicans): 1
- Ratio of concentration needed to inhibit growth in 50%, P815 vs C. albicans (P815; 50% growth inhibition, Table 4): the same
- IC50 (P815; Mus musculus, P815, 24 h, read-out: Concentration causing 50% growth inhibition): 0.035 µg/mL (≈ 0.153 µM)
- IC50 (P815; Mus musculus, P815, 24 h, read-out: Minimal concentration causing 50% growth inhibition): 0.035 µg/mL (≈ 0.153 µM)
- IC100 (P815; Mus musculus, P815, 24 h, read-out: Minimal concentration causing 100% growth inhibition): 0.625 µg/mL
- selectivity ratio at 24 h [3]: 1
- IC50 (L1210): 0.035 µg/mL (≈ 0.153 µM)
- selectivity ratio at 24 h [4]: 1
- IC50 (WEHI-3): 0.027 µg/mL (≈ 0.118 µM)
- selectivity ratio at 24 h [5]: 12
- IC50 (3T3): 0.45 µg/mL (≈ 1.97 µM)
- IC50 (E. coli [6]): 0.18 µg/mL (≈ 0.788 µM)
- IC50 (P. aeruginosa; [13]): 0.68 µg/mL (≈ 2.98 µM)
- MIC (P. aeruginosa; read-out: Minimal concentration causing 100% growth inhibition): 2.5 µg/mL (≈ 10.9 µM)
- zone of inhibition at 0.01 µg/disc (Aspergillus fumigatus [7]): 8 mm
- zone of inhibition at 0.1 µg/disc (Aspergillus fumigatus [7]): 19 mm
- zone of inhibition at 1 µg/disc (Aspergillus fumigatus [7]): 27 mm
- zone of inhibition at 10 µg/disc (Aspergillus fumigatus [7]): 27 mm
- IC50 (C. albicans [8]): 0.04 µg/mL (≈ 0.175 µM)
- IC50 (P815 mastocytoma): 0.081 µg/mL (≈ 0.355 µM)
- Anti-Candida (Candida): Y
- Anti-Aspergillus (Aspergillus): Y
- Anti-bacterial (bacteria): Y
- MIC (C. albicans [9]): 0.16 µg/mL (≈ 0.701 µM)
- MIC (E. coli [10]): 0.625 µg/mL (≈ 2.74 µM)
- Sensitivity of virus (murine cytomegalovirus): extremely sensitive
- Sensitivity of virus (Sindbis virus): extremely sensitive
- Effect on bacteriophage (bacteriophage T4): slightly affected
- Effect on bacteriophage (bacteriophage M13): completely unaffected
- Sensitivity of mouse cells (mouse cells; in presence of UV-A): moderately sensitive
- Sensitivity of mouse cells (mouse cells; in the dark): somewhat less sensitive
- Antifungal activity (Candida albicans): strong antifungal activity
- Antifungal activity (Aspergillus fumigatus [11]): strong antifungal activity
- Cytotoxic activity (Escherichia coli): cytotoxic activity
- Cytotoxic activity (Bacillus subtilis): cytotoxic activity
- Cytotoxic activity (Hycobacteria sp.): cytotoxic activity
- Cytotoxic activity (Coenorhabditis elogans): cytotoxic activity
- Order of potency [12]: alpha-terthienyl thiarubrine-A > phenylheptatriyne > ACBP-thiophene > thiophene-A
